System: 282377-053-R-J1-PDC complex spheroid viability
Test: Anticancer human tumor 282377-053-R-J1-PDC patient-derived colon adenocarcinoma cell line growth inhibition [POLQ]
Settings: for IC50: curve of first compound; for viability, T/C: stronger effect = lower value
Description: Multicellular complex tumor spheroid response to Polymerase (POL) inhibitors (novobiocin, ART-558, RP6685) in combination with a variety of drugs and investigational agents in selected tumor cell lines
The POL inhibitors (novobiocin, ART-558, and RP6685) were evaluated both individually and in combination with standard of care and investigational anticancer small molecules within a complex spheroid model of solid tumors. . Complex spheroids include a stromal component modeled by human endothelial cells (HUVEC) and fibroblasts modeled by human mesenchymal stem cells (MSCs). The concentration ranges selected for each drug and investigational agent were based upon clinically achievable concentrations if the clinical Cmax of the agent was known.
Compounds. The drugs and investigational agents: novobiocin (NSC847541), ART-558 (NSC835418), RP-6685 (NSC848927), peposertib (NSC802822), ceralasertib (NSC780249), elimusertib (NSC800525), camonsertib (NSC841442), AZD-1390 (NSC803789), olaparib (NSC753686), talazoparib (NSC767125), rucaparib (NSC756644), sotorasib (NSC818433), MRTX-1133 (NSC836407), SN-38 (NSC673596), topotecan (NSC609699), epotoside (NSC141540), doxorubicin (NSC123127), gemcitabine (NSC613327), 5-fluorouracil (NSC19893), paclitaxel (NSC125973), vemurafenib (NSC761431), MSA-2 (NSC828583), SN-011 (NSC837082), adavosertib (NSC754352), prexasertib (NSC758257), carboplatin (NSC241240) and oxaliplatin (NSC266046), were obtained from the National Cancer Institute (NCI) Developmental Therapeutics Program Chemical Repository (21). The FDA-approved anticancer drug set is available from the Developmental Therapeutics Program at https://dtp.cancer.gov/organization/dscb/obtaining/. […] The stock solutions were prepared in dimethyl sulfoxide (DMSO, Sigma-Aldrich, St. Louis, MO, cat. D2650), except for the platinum compounds which were prepared in saline (Quality Biological, Gaithersburg, MD, cat. 114-055-101), at 800-fold the tested concentration and stored at -70 degrees C prior to their use. All drugs and investigational agents were tested over a range starting from a high concentration at or near the clinical Cmax and decreasing in half-log increments. If the clinical Cmax for an agent had not been determined, the highest concentration tested was 10 microM, except for SN-38, which was tested at a high concentration of 1 microM.
Cell Culture. All cells were maintained in an incubator at 37 degrees C and 5% CO2 with 95% humidity. The PDC lines were cultured according to standard operating procedures established by the NCI PDMR (https://pdmr.cancer.gov). Table 3 of the manuscript, lists the cell lines along with the number of the three cell types plated to form the mct-spheroids and media for tumor cell growth. After thawing, all PDC lines, except 997537-175-T-J1-PDC and 415267-285-R-J2-PDC, were cultured in Matrigel-coated flasks prepared with a working solution of 1X Ham's F-12 nutrient mix, without supplementation (Thermo Fisher Scientific, cat. 11765054), 100 U/mL penicillin-streptomycin (Thermo Fisher Scientific, cat. 15140122), and 2.5% Matrigel (Corning Inc., Corning, NY, cat. 354248) for the first three passages. The two PDC lines 997537-175-T-J1-PDC and 415267-285-R-J2-PDC were cultured on uncoated flasks. The 857933-349-R-J2-PDC line was cultured in 6C/Colon 1B media containing advanced DMEM/F-12 (Thermo Fisher Scientific, cat. 12634028), 10 mM HEPES (Thermo Fisher Scientific, cat. 15630080), 1X GlutaMAX supplement (Thermo Fisher Scientific, cat. 35050061), 0.1 mg/mL primocin (InvivoGen, San Diego, CA, cat. ant-pm-2), 10% defined fetal bovine serum, heat inactivated (HyClone Laboratories Inc., Logan, UT, cat. SH30070.03HI), 50% L-WRN conditioned media (ATCC, cat. CRL-3276), 1.25 mM N-Acetyl-L-cysteine (Sigma-Aldrich, cat. A9165), 10 mM nicotinamide (Sigma-Aldrich, cat. N0636), 1X B-27 supplement (Thermo Fisher Scientific, cat. 17504044), 1X N-2 supplement (Thermo Fisher Scientific, cat. […]

[1] = second compound 0.0316 µM, first compound 0.0316 µM
[2] = second compound 0.0316 µM, first compound 0.1 µM
[3] = second compound 0.1 µM, first compound 0.0316 µM
[4] = second compound 0.1 µM, first compound 0.1 µM
[5] = second compound 0.316 µM, first compound 0.0316 µM
[6] = second compound 0.316 µM, first compound 0.1 µM
[7] = second compound 1 µM, first compound 0.0316 µM
[8] = second compound 1 µM, first compound 0.1 µM
[9] = second compound 3.16 µM, first compound 0.0316 µM
[10] = second compound 3.16 µM, first compound 0.1 µM
[11] = second compound 10 µM, first compound 0.0316 µM
[12] = second compound 10 µM, first compound 0.1 µM
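Further: spheroids exposed to compounds for seven days.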
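Wherever viability, T/C is given: 100% = DMSO vehicle control viability.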

CNCc1ccc(-c2[nH]c3cc(F)cc4c3c2CCNC4=O)cc1 + Cc1cccc(N(C)C(=O)C2C(O)CCN2c2nc(C)cc(C(F)(F)F)c2C#N)c1 was tested, and the IC50 (second compound 0.0316 µM) was > 10 µM, the IC50 (second compound 0.1 µM) was > 10 µM and the IC50 (second compound 0.316 µM) was > 10 µM. The IC50 (second compound 1 µM) was > 10 µM, the IC50 (second compound 3.16 µM) was > 10 µM and the IC50 (second compound 10 µM) was > 10 µM. The viability, T/C [1] was 122%, the viability, T/C [2] was 89.9% and the viability, T/C (second compound 0.0316 µM, first compound 0.316 µM) was 135%. The viability, T/C (second compound 0.0316 µM, first compound 1 µM) was 113%, the viability, T/C (second compound 0.0316 µM, first compound 3.16 µM) was 122% and the viability, T/C (second compound 0.0316 µM, first compound 10 µM) was 144%. It also gave a viability, T/C [3] of 122%, a viability, T/C [4] of 94.3% and a viability, T/C (second compound 0.1 µM, first compound 0.316 µM) of 98.2%. For the same compound, the viability, T/C (second compound 0.1 µM, first compound 1 µM) was 93%, the viability, T/C (second compound 0.1 µM, first compound 3.16 µM) was 134% and the viability, T/C (second compound 0.1 µM, first compound 10 µM) was 140%. It also gave a viability, T/C [5] of 99.1%, a viability, T/C [6] of 105% and a viability, T/C (second compound 0.316 µM, first compound 0.316 µM) of 87.4%. For the same compound, the viability, T/C (second compound 0.316 µM, first compound 1 µM) was 98.1%, the viability, T/C (second compound 0.316 µM, first compound 3.16 µM) was 113% and the viability, T/C (second compound 0.316 µM, first compound 10 µM) was 124%. It also gave a viability, T/C [7] of 117%, a viability, T/C [8] of 98.7% and a viability, T/C (second compound 1 µM, first compound 0.316 µM) of 105%. For the same compound, the viability, T/C (second compound 1 µM, first compound 1 µM) was 104%, the viability, T/C (second compound 1 µM, first compound 3.16 µM) was 138% and the viability, T/C (second compound 1 µM, first compound 10 µM) was 129%. The viability, T/C [9] was 85.9%, the viability, T/C [10] was 114% and the viability, T/C (second compound 3.16 µM, first compound 0.316 µM) was 80.2%. It also gave a viability, T/C (second compound 3.16 µM, first compound 1 µM) of 85.1%, a viability, T/C (second compound 3.16 µM, first compound 3.16 µM) of 117% and a viability, T/C (second compound 3.16 µM, first compound 10 µM) of 150%. The viability, T/C [11] was 104%, the viability, T/C [12] was 98.4% and the viability, T/C (second compound 10 µM, first compound 0.316 µM) was 104%. It also gave a viability, T/C (second compound 10 µM, first compound 1 µM) of 103%, a viability, T/C (second compound 10 µM, first compound 3.16 µM) of 103% and a viability, T/C (second compound 10 µM, first compound 10 µM) of 138%.

In the case of Cn1ncnc1[C@H]1c2n[nH]c(=O)c3cc(F)cc(c23)N[C@@H]1c1ccc(F)cc1 + Cc1cccc(N(C)C(=O)C2C(O)CCN2c2nc(C)cc(C(F)(F)F)c2C#N)c1, the IC50 (second compound 0.0316 µM) is reported as > 0.1 µM, the IC50 (second compound 0.1 µM) is reported as > 0.1 µM and the IC50 (second compound 0.316 µM) is reported as > 0.1 µM. The IC50 (second compound 1 µM) was > 0.1 µM, the IC50 (second compound 3.16 µM) was > 0.1 µM and the IC50 (second compound 10 µM) was > 0.1 µM. It also gave a viability, T/C (second compound 0.0316 µM, first compound 0.000316 µM) of 111%, a viability, T/C (second compound 0.0316 µM, first compound 0.001 µM) of 86.9% and a viability, T/C (second compound 0.0316 µM, first compound 0.00316 µM) of 105%. For the same compound, the viability, T/C (second compound 0.0316 µM, first compound 0.01 µM) was 128%, the viability, T/C [1] was 98.3% and the viability, T/C [2] was 89.3%. For the same compound, the viability, T/C (second compound 0.1 µM, first compound 0.000316 µM) was 125%, the viability, T/C (second compound 0.1 µM, first compound 0.001 µM) was 125% and the viability, T/C (second compound 0.1 µM, first compound 0.00316 µM) was 102%. The viability, T/C (second compound 0.1 µM, first compound 0.01 µM) was 128%, the viability, T/C [3] was 91.8% and the viability, T/C [4] was 100%. For the same compound, the viability, T/C (second compound 0.316 µM, first compound 0.000316 µM) was 95.9%, the viability, T/C (second compound 0.316 µM, first compound 0.001 µM) was 114% and the viability, T/C (second compound 0.316 µM, first compound 0.00316 µM) was 98.2%. For the same compound, the viability, T/C (second compound 0.316 µM, first compound 0.01 µM) was 93.5%, the viability, T/C [5] was 111% and the viability, T/C [6] was 95.5%. It also gave a viability, T/C (second compound 1 µM, first compound 0.000316 µM) of 116%, a viability, T/C (second compound 1 µM, first compound 0.001 µM) of 110% and a viability, T/C (second compound 1 µM, first compound 0.00316 µM) of 89%. It also gave a viability, T/C (second compound 1 µM, first compound 0.01 µM) of 102%, a viability, T/C [7] of 119% and a viability, T/C [8] of 91.6%. The viability, T/C (second compound 3.16 µM, first compound 0.000316 µM) was 106%, the viability, T/C (second compound 3.16 µM, first compound 0.001 µM) was 130% and the viability, T/C (second compound 3.16 µM, first compound 0.00316 µM) was 82.9%. It also gave a viability, T/C (second compound 3.16 µM, first compound 0.01 µM) of 115%, a viability, T/C [9] of 88.5% and a viability, T/C [10] of 112%. It also gave a viability, T/C (second compound 10 µM, first compound 0.000316 µM) of 105%, a viability, T/C (second compound 10 µM, first compound 0.001 µM) of 102% and a viability, T/C (second compound 10 µM, first compound 0.00316 µM) of 105%. It also gave a viability, T/C (second compound 10 µM, first compound 0.01 µM) of 82.7%, a viability, T/C [11] of 81.5% and a viability, T/C [12] of 100%.
